Here are results for 13 compounds from ChEMBL document CHEMBL1201862, “PubChem BioAssay data set” (2004).

One may read the AC50 as the midpoint of the concentration-response curve, whichever way the signal moves. What is called IC50 is the midpoint of a concentration-inhibition curve. Broadly, the EC50 is the concentration at which the effect is half-maximal. What is called Ki is a measure of affinity in units of concentration, obtained from inhibition or displacement. A word on the CC50: it is the concentration that lowers cell viability or growth by half.

Activity calls are given as the source filed them.

For series [1], the target named is Cytochrome P450 2D6 (Homo sapiens, UniProt P10635).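 Further: CYP2D6 member of a cytochrome P450 panel assay.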
In series [2] the target is Cytochrome P450 2C9 (Homo sapiens, UniProt P11712).
The target of series [3] is DNA topoisomerase (Yersinia pestis, UniProt A0A2S9PM60). The experiment in a line: Y. pestis Topo-I inhibitors, cleavage product readout, dose response, biochemical, cherry-pick (AID 588525).
Series [4] has as its target Phospholipase D2 (Homo sapiens, UniProt O14939). In words: PLD2 inhibitor potency in cells, dose response (AID 602147).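 Further: cellular assay in HEK293 cells overexpressing GFP-tagged PLD2.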 The series is classed as functional.
For series [5], the target named is Phospholipase D1 (Homo sapiens, UniProt Q13393). The experiment in a line: PLD1 inhibitor potency in cells, dose response (AID 602151).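 Further: cellular PLD1 assay in Calu-1 cells stimulated with PMA.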 Format: functional.
Series [6] in a line: inhibitors of cytokine-induced nitrite release, dose response, cell-based, Griess absorbance, INS-1E, dry powder, set 3 (AID 488870). Format: functional. The conditions noted are these: Rattus norvegicus.
The subject of series [7] is INS1. In words: inhibitors of cytokine-induced nitrite release, dose response, cell-based, Griess absorbance, INS-1E, dry powder, set 2 (AID 488868). Format: functional. The conditions noted are these: Rattus norvegicus. On the technique in general: The Griess reaction detects nitrite, a stable product of nitric oxide.
In series [8] the test system is INS1. In words: inhibitors of cytokine-induced nitrite release, dose response, cell-based, Griess absorbance, INS-1E, dry powder (AID 488866). The conditions noted are these: Rattus norvegicus. The series is classed as functional.
The target of series [9] is ORF 73 (Human herpesvirus 8, UniProt O40947). The experiment in a line: inhibitors of C-LANA binding to LBS DNA, dose response, biochemical, fluorescence polarization, cherry-picked samples (AID 504725).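 Further: fluorescence polarization of a labeled DNA duplex reporting LANA DNA binding; potency is for inhibitors that block LANA binding to the DNA.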 Set-up: species or system Human gammaherpesvirus 8.
The target of series [10] is T1, Insulin-degrading enzyme (Homo sapiens, UniProt P14735). In words: activators of endogenous IDE in HEK cells, dose response, cell-based, fluorescence polarization (AID 588439). Format: functional. A general note: In fluorescence polarisation assays a small probe gives low polarisation when free and higher when bound to something large.
For series [11], the target named is T1, Insulin-degrading enzyme. The experiment in a line: activators of recombinant IDE enzyme, dose response, counter-screen for IDE activator project, biochemical, fluorescence polarization (AID 588681). Background: A counterscreen serves to expose hits that act by an unwanted route or on another target.
Series [12] has as its system HEK293. In words: HEK cell cytotoxicity by LDH release, dose response, cytotoxicity control for IDE activator project, fluorescence, HEK cells (AID 588440).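 Further: cytotoxicity by LDH release measuring loss of membrane integrity.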 Format: functional, cell-based. As to conditions: Homo sapiens.
Series [13] addresses Beta-lactamase (Salmonella choleraesuis (strain SC-B67), UniProt Q5J463).
Series [14] relates to HEK293. In words: optical interference in Abeta FP readout, dose response, artefact control for IDE activator project, biochemical, fluorescence polarization (AID 588442). The series is classed as functional, cell-based. The conditions noted are these: Homo sapiens.
The target of series [15] is Beta-lactamase (Pseudomonas aeruginosa, UniProt Q79MP6).
Series [16] deals with Protein disulfide-isomerase (Homo sapiens, UniProt P07237). In words: PDI inhibitors, insulin aggregation turbidity, dose response, biochemical, absorbance, cherry-picked samples (AID 602350). The series is classed as functional.
Series [17] addresses Vascular endothelial growth factor receptor 2 (Homo sapiens, UniProt P35968). The series is classed as functional.
Series [18] has as its target Aurora kinase B (Homo sapiens, UniProt Q96GD4). The series is classed as functional.
In series [19] the target is Aurora kinase A (Homo sapiens, UniProt O14965). The series is classed as functional.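 Further: value from the Navigating the Kinome kinase panel profiling, panel entry STK6.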
Series [20] is described as follows: A cell-based HTS for delayed death inhibitors of the malarial parasite plastid Measured in Microorganism System Using Plate Reader - 2126-02_Inhibitor_Dose_DryPowder_Activity. Format: functional, organism-based.
Series [21] in a line: A cell-based HTS for delayed death inhibitors of the malarial parasite plastid Measured in Microorganism System Using Plate Reader - 2126-01_Inhibitor_Dose_DryPowder_Activity. The series is classed as functional, organism-based.
A short description of series [22]: Luminescence Cell-Based Dose Response HTS to Identify Activators of Luciferase Translation or Activity in H4-C Neuroglioblastoma Cells. [Related pubchem assays: 1829 (Project Summary), 1814 (Primary HTS)]. The series is classed as functional.
Series [23] in a line: luciferase reporter signal reduction – luminescence, H4-C neuroglioblastoma cells, dose response (AID 2458).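 Further: H4 neuroglioblastoma cells stably carrying a luciferase reporter gene fusion.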 Format: functional, cell-based.
Series [24] relates to BJ. In words: cytotoxicity toward Ras-transformed BJeLR fibroblasts, dose response, cell-based, alamar blue fluorescence, cherrypicked samples (AID 2631).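 Further: confirmatory dose-response assay in RAS-dependent BJ fibroblasts engineered with TERT, LT and ST, with cytotoxicity read by fluorescence.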 Format: functional. As to conditions: Homo sapiens.
The nature of series [25]: cells. The series is classed as functional, cell-based.
Series [26] in a line: inhibitors of firefly luciferase expression or activity, dose response, H4 neuroglioma cells, luminescence (AID 1990). Format: functional, cell-based.
The nature of series [27]: Luminescence Cell-Based Dose HTS Response to Identify Inhibitors of 5'UTR Stem-Loop Driven Prion Protein mRNA Translation in H4-C Neuroglioblastoma Cells. [Related pubchem assays (depositor defined):AID1814, AID1827]. Format: functional.
Series [28] can be described thus: cytotoxicity toward DRD oncogenic fibroblasts, dose response, cell-based, non-viral oncogenic, luminescence (AID 1934). Format: functional. The conditions noted are these: Homo sapiens.
The nature of series [29]: Luminescence Cell-Based Dose Response HTS to Identify Inhibitors of Luciferase Translation or Activity in H4-C Neuroglioblastoma Cells. [Related pubchem assays: 1813 (Primary HTS), 1827 (Project Summary)]. The series is classed as functional.
Series [30] concerns BJ. In words: cells. The series is classed as functional, cell-based. As to conditions: Homo sapiens.
Series [31] can be described thus: inhibitors of SNCA 5'UTR-driven translation, confirmation, luminescence, H4 neuroglioblastoma cells, dose confirmation (AID 2454).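 Further: H4 neuroglioblastoma cells carrying an alpha-synuclein 5'UTR luciferase reporter; potency for inhibition of the luciferase signal.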 The series is classed as functional, cell-based.
Series [32] can be described thus: Luminescence Cell-Based Dose Response HTS to Identify Activators of 5'UTR Stem-Loop Driven Prion Protein mRNA Translation in H4-C Neuroglioblastoma Cells. [Related pubchem assays: 1829 (Project Summary), 1814 (Primary HTS)]. The series is classed as functional.
Series [33] in a line: Luminescence Cell-Based Dose Confirmation HTS to Identify Inhibitors of 5'UTR Stem-Loop Driven Alpha-Synuclein mRNA Translation in H4 Neuroglioblastoma Cells. [Related pubchem assays: 1827 (Project Summary), 1813 (Primary HTS)]. The series is classed as functional.
Series [34] is described as follows: Luminescence Cell-Based Dose Response HTS to Identify Inhibitors of 5'UTR Stem-Loop Driven Prion Protein mRNA Translation in H4 Neuroglioblastoma Cells. [Related pubchem assays: 1827 (Project Summary), 1813 (Primary HTS)]. The series is classed as functional.
Series [35] is described as follows: inhibitors of SNCA 5'UTR-driven reporter translation, confirmation, H4 neuroglioma cells, luminescence (AID 1988). The series is classed as functional, cell-based.
Series [36] deals with BJ. In words: cytotoxicity toward BJ-TERT fibroblasts, dose response, cell-based, RAS-independent, luminescence (AID 1933). As to conditions: Homo sapiens. Format: functional.
For series [37], the system named is BJ. The experiment in a line: cytotoxicity toward BJ-TERT-LT-ST fibroblasts, dose response, cell-based, RAS-independent, luminescence (AID 1935).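 Further: BJ fibroblasts immortalized with TERT plus LT and ST oncogenes.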 The conditions noted are these: Homo sapiens. Format: functional.
Series [38] is described as follows: Vero cell cytotoxicity, dose response, cytotoxicity control for M. tuberculosis growth inhibitor project, Vero cells, purified and synthesized compounds, set 4 (AID 504854). The conditions noted are these: Mycobacterium tuberculosis. The series is classed as functional.
Series [39] deals with Benomyl/methotrexate resistance protein (Candida albicans, UniProt P28873). In words: CaMdr1 efflux pump inhibitor potency, dose response, singleplex, Cherry Pick1 hits (AID 588608). The series is classed as functional.
Series [40] deals with Multidrug resistance protein CDR1 (Candida albicans, UniProt P43071). In words: CaCDR1 efflux pump inhibitors in yeast, dose response, S. cerevisiae AD1-8u, singleplex, Cherry Pick1 hits (AID 588606). The series is classed as functional.
Series [41] is described as follows: THP-1 cell cytotoxicity, cytotoxicity control, set 4 (AID 504911). Format: functional. The conditions noted are these: Mycobacterium tuberculosis.
Series [42] in a line: THP-1 cell cytotoxicity, dose response, cytotoxicity control, set 3 (AID 504852). Format: functional. The conditions noted are these: Mycobacterium tuberculosis.
Series [43] is described as follows: THP-1 cell cytotoxicity, cytotoxicity control, set 6 (AID 602433). The conditions noted are these: Mycobacterium tuberculosis. The series is classed as functional.
The target of series [44] is Latent membrane protein 1 (Human herpesvirus 4 (strain B95-8), UniProt P03230). In words: TES1-eGFP NF-kB reporter inhibition versus Tet-On dsRED, dose response, selectivity assay for LMP1 NF-kB inhibitor project, imaging, HEK293T, dual-color eGFP/dsRED, cherry-picks (AID 588398). The series is classed as functional, cell-based.
Series [45] deals with INS1. The experiment in a line: protection of INS-1E cells from cytokine death, dose response, ATP luminescence, dry powder (AID 488844). Format: functional, cell-based. As to conditions: Rattus norvegicus.
The subject of series [46] is INS1. The experiment in a line: protection from cytokine-induced mitochondrial depolarization, dose response, cell-based, INS-1E, JC-1 fluorescence ratio, dry powder (AID 488931). The series is classed as functional. As to conditions: Rattus norvegicus.
For series [47], the system named is INS1. The experiment in a line: protection from cytokine-driven beta-cell apoptosis, dose response, JC-1 fluorescence, INS-1E, dry powder, set 2 (AID 488867). The series is classed as functional, cell-based. The conditions noted are these: Rattus norvegicus.

T1 sequence (P14735 whole entry): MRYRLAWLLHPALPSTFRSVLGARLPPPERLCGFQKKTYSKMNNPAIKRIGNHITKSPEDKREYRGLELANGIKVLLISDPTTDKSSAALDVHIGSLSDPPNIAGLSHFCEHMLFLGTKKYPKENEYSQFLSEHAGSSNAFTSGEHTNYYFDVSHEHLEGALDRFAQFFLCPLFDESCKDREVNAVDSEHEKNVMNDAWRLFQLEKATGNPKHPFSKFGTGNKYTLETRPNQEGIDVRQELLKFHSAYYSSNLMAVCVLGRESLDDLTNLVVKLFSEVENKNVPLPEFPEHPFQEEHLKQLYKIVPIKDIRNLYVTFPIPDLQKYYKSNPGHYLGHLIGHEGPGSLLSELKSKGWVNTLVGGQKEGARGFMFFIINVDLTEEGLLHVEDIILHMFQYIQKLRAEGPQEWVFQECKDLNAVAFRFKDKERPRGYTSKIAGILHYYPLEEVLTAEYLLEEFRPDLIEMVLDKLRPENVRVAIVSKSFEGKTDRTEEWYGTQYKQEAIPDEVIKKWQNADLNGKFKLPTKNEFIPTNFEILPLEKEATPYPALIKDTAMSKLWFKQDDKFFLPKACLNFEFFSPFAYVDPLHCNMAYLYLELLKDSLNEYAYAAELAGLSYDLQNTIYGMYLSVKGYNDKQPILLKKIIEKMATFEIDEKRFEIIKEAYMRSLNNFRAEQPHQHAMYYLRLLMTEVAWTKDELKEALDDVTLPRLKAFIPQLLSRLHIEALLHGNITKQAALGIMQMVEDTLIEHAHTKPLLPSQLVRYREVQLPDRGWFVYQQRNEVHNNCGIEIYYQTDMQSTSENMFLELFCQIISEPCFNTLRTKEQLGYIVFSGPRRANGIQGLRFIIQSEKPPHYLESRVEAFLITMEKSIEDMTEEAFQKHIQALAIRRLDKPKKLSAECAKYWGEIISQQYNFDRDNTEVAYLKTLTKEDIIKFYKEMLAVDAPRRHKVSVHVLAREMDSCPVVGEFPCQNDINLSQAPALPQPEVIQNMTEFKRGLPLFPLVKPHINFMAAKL
Chain of Vascular endothelial growth factor receptor 2 (P35968 whole entry): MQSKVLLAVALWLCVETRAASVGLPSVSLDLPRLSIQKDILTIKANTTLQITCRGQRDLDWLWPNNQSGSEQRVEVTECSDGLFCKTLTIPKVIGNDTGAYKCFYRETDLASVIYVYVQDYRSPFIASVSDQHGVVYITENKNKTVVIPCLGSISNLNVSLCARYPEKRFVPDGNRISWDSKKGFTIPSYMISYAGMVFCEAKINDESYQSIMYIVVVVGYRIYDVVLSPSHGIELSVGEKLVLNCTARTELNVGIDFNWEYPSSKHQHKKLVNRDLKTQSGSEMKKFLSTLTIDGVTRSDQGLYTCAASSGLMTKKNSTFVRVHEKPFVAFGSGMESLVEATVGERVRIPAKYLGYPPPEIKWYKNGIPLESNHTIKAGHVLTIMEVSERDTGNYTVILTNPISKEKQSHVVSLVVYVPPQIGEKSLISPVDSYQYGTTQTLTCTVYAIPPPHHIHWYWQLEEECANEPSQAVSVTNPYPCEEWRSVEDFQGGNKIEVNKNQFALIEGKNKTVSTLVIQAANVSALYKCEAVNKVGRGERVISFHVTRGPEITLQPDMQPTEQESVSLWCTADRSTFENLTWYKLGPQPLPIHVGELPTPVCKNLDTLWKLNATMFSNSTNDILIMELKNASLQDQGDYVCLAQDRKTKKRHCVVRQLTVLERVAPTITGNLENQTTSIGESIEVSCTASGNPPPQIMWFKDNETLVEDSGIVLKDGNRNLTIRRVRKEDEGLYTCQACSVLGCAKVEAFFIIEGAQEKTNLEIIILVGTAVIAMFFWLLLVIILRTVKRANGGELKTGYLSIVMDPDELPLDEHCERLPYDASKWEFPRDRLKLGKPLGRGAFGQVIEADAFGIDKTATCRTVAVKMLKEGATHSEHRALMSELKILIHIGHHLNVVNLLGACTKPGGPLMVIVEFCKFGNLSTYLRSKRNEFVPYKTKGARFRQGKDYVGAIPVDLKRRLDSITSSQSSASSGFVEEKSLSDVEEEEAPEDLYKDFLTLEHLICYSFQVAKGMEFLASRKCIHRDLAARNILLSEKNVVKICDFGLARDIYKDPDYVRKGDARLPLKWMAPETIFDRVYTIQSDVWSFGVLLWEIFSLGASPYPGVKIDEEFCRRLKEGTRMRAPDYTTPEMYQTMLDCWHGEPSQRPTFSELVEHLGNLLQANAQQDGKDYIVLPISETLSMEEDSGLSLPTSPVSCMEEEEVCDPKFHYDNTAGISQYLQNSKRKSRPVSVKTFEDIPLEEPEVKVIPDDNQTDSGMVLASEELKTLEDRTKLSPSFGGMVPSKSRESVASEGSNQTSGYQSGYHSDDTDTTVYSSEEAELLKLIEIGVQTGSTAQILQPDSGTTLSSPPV
Chain of Beta-lactamase (Salmonella choleraesuis (strain SC-B67), UniProt Q5J463) (Q5J463 whole entry): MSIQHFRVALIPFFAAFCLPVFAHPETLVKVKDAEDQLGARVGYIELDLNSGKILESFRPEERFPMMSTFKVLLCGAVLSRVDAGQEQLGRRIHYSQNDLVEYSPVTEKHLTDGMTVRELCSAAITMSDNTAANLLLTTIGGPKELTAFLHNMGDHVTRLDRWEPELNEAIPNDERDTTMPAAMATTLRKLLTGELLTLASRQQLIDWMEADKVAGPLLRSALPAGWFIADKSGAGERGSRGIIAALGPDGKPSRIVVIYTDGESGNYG
Chain of ORF 73 (O40947 whole entry): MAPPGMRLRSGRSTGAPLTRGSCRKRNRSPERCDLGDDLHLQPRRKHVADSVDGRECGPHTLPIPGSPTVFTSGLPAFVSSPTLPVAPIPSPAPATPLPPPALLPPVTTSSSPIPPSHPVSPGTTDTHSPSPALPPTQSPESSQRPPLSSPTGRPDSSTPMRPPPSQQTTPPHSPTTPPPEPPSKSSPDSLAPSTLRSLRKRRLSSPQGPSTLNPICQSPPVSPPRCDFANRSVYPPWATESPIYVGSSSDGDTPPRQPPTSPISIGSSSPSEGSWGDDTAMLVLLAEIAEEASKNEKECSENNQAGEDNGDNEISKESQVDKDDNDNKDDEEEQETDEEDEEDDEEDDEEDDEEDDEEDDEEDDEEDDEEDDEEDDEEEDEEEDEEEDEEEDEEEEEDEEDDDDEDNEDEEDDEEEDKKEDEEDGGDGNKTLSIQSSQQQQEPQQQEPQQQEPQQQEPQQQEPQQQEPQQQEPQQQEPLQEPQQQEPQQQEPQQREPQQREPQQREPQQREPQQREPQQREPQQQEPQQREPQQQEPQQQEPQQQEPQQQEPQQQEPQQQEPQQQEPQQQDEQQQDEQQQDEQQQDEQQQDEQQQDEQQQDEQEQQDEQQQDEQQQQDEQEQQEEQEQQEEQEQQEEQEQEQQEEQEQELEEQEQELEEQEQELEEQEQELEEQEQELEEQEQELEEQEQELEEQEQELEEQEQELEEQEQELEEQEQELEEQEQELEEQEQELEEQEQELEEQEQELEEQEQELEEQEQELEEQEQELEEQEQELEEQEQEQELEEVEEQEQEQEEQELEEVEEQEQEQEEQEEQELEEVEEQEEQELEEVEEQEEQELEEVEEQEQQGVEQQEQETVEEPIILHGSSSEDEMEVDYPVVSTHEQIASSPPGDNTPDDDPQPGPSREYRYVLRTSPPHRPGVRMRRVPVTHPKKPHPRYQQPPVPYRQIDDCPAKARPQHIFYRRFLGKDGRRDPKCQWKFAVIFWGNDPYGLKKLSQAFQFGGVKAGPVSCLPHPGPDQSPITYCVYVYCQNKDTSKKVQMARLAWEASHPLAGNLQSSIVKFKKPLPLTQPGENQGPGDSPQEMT
Chain of Protein disulfide-isomerase (P07237 whole entry): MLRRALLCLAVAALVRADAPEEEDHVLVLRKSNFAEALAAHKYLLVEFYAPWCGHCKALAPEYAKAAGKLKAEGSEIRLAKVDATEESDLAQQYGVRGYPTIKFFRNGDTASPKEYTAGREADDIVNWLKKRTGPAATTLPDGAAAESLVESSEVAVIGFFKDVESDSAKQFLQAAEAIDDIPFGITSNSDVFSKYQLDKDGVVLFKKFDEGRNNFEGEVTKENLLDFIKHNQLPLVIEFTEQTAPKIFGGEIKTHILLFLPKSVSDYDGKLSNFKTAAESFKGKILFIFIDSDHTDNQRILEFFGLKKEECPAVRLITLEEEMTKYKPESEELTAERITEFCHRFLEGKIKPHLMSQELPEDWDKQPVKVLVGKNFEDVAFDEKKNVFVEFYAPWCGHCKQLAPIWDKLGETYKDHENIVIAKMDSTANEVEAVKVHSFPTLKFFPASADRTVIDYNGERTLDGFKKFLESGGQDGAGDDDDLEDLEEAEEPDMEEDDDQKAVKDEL
Chain of Cytochrome P450 2C9 (P11712 whole entry): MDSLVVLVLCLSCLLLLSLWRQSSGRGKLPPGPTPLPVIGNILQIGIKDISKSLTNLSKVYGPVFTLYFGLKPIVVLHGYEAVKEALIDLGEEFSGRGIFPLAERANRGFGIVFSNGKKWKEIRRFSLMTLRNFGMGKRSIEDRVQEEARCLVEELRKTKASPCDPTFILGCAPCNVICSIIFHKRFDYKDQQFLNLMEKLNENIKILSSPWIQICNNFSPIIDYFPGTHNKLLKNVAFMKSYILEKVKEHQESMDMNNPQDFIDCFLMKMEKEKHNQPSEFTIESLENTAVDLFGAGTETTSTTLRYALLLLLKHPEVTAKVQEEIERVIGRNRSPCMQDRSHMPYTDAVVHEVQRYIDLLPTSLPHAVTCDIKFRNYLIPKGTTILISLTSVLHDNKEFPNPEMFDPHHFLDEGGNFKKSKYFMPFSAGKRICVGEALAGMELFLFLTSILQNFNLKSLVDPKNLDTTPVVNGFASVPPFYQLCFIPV
Chain of Aurora kinase B (Q96GD4 whole entry): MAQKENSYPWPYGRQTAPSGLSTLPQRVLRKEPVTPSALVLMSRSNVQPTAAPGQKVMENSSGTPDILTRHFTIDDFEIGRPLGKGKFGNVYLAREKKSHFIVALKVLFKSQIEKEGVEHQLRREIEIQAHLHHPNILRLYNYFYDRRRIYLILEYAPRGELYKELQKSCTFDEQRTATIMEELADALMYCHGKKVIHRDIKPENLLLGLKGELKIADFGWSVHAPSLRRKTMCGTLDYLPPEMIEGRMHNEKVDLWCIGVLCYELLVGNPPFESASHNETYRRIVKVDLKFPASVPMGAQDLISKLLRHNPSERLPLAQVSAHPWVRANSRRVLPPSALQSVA

On to `Clc1cccc(CSc2nnc(-c3sccc3-n3cccc3)o2)c1`, for which the AC50 in [1] was 0.398 µM (inconclusive); in [2], “inconclusive”; in series [3], 5.15 µM (active).

Regarding `C[C@@H](CN1CCC(n2c(=O)[nH]c3ccccc32)CC1)NC(=O)CCc1ccc(F)cc1`, the IC50 in series [4] is 9 µM (active); in [5] it was 0.26 µM (active).

Take `C[C@@H]1CN([C@@H](C)CO)C(=O)c2cccc(NC(=O)Nc3cccc4ccccc34)c2O[C@H]1CN(C)S(=O)(=O)c1cccc(F)c1`: the figures for the AC50 in [6], in series [7] and in series [8] were 22.9 µM (active), 29.6 µM (active) and 32.1 µM (active), respectively.

On to `CCOc1ccc(/C=C2\CCCc3c2nc2ccccc2c3C(=O)O)cc1OC`, for which the AC50 in series [9] is 0.908 µM (active). Besides, the values for the EC50 in series [10], in series [11] and in series [14] were > 54.7 µM (inactive), > 54.7 µM (inactive) and 5.38 µM (active), respectively. For the same compound, the IC50 was > 89.2 µM (inactive) in [12], 10.9 µM (inactive) in [13] and 53.1 µM (inactive) in series [15].

As to `Cc1c(O)ccc2c(CC(=O)N[C@@H](Cc3c[nH]c4ccccc34)C(=O)O)cc(=O)oc12`, the AC50 in series [16] is 6.76 µM (active).

`COc1cc(-c2ccc3c(c2)Nc2cc(OCCCCO)c(OC)cc2NC3=O)ccc1O`: the figures for the Ki in series [17], in [18] and in series [19] were 3.98 µM (active), 1.58 µM (active) and 1.26 µM (active), respectively.

As for `C[C@@H]1CN([C@@H](C)CO)C(=O)c2cc(NC(=O)Nc3ccccc3)ccc2O[C@@H](C)CCCCO[C@H]1CN(C)C(=O)OC(C)(C)C`, the AC50 in [20] is 1.37 µM (active); in [21] it was 2.41 µM (active).

As for `CCOC(=O)c1[nH]c(C)c(C(=O)N2CCc3ccccc32)c1C`, the EC50 is 0.63 µM (inconclusive) in series [22]; 1.07 µM (active) in [23]; 0.252 µM (active) in series [24]; 1.22 µM (active) in series [25]; 4.63 µM (inconclusive) in series [26]; 2.33 µM (active) in series [27]. The EC50 in [28] was 0.656 µM (active); in [29], 1.01 µM (active); in series [30] it was 10.8 µM (active); in series [31], 1.3 µM (active); in [32] it was 0.353 µM (inconclusive); in series [33], 2.13 µM (active). Besides, the EC50 in series [34] was 4.65 µM (active); in [35], < 0.1 µM (active); in series [36], 0.704 µM (inconclusive); in series [37], 0.42 µM (inconclusive).

On to `CCC(Sc1nc2ccccc2c(=O)[nH]1)C(=O)Nc1cccc(OC)c1` (stereo not drawn), for which, in series [38], the CC50 was > 100 µM (active).

Turning to `Cc1ccc(S(=O)(=O)N2CCOCC2)cc1NC(=O)COC(=O)CNC(=O)c1ccccc1`, the EC50 in series [39] is 0.065 µM (active); in series [40] it was 0.018 µM (active).

In the case of `CC(C)CCNC(=O)CSc1nc(O)c2ccccc2n1`, the CC50 in series [41], in series [42] and in series [43] was > 100 µM (active) throughout.

`Cc1ccc(/C=N/NC(=O)c2cc(-c3ccccc3)nc3ccccc23)o1`: the concentration at half-maximal activity (AC50) in series [44] was 27.2 µM (active).

For `C[C@@H]1CN([C@@H](C)CO)C(=O)c2cccc(NC(=O)Nc3cccc4ccccc34)c2O[C@H]1CN(C)S(=O)(=O)c1ccc2c(c1)OCC2`, the AC50 in series [45] is 67.9 µM (active); in [46], > 195 µM (inactive); in series [6], 25.2 µM (active); in series [47], 29.8 µM (active).
